One assay addresses T1, ASGPR (Homo sapiens, UniProt P07306).
T1 sequence (P07306 1-291): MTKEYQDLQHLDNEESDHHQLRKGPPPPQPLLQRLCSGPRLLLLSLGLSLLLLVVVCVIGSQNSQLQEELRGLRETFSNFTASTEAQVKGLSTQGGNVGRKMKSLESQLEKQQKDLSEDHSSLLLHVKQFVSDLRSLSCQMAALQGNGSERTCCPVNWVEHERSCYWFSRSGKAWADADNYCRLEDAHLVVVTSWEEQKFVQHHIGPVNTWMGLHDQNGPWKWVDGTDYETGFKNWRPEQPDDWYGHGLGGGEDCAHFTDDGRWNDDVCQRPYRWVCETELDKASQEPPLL
Put plainly: Affinity to ASGPR by surface plasmon resonance (SPR). For orientation: SPR reads the build-up and loss of mass on a sensor chip optically.

The target of the next assay is IgG. The experiment in a line: Affinity to IgG by surface plasmon resonance (SPR). Format: binding. The following applies: SPR; read-out: IgG KD. On the procedure: Immobilization levels ranging from 1000-1300 resonance units (RU) are obtained. The running buffer is 10 mM HEPES, pH 7.4, 400 mM NaCl, 0.005% P20, […].
The next assay deals with HepG2 cells. The experiment in a line: Cellular uptake assay of AF488-labeled antibody (HepG2). Format: cell-based. A digest of the protocol:
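HepG2 cells given 100 nM AF488-labeled human IgG or DNP antibody plus serial dilutions of matching degrader (0.1% DMSO final), 6 h at 37° C. Methanol-fixed, DAPI-stained and imaged by high-content analysis. Value is the fraction of AF488-positive cells over total DAPI-counted cells.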

The target of assay [1] is T2, ASGPR receptor on the cell surface (HepG2 cells) (Homo sapiens, UniProt P07306).
T2 construct: host or cells: HepG2
T2 sequence (P07306 1-291): T1 sequence (P07306 1-291)
T2 sequence (P07307 1-311 partner): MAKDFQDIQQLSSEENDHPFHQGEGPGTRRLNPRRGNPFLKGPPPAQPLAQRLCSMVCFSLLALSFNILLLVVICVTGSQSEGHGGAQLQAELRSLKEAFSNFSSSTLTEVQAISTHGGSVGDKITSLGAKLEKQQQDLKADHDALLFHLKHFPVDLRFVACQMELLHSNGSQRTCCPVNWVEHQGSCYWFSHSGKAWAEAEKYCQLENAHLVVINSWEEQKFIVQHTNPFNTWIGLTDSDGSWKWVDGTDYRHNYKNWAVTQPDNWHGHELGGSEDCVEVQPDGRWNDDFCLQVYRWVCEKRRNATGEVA
The experiment in a line: Ternary complex formation assay (flow cytometry, HepG2). Format: cell-based. A digest of the protocol: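 HepG2 cells (1×10^5/well) incubated 1 h at 4 °C with 100 nM AF488-labeled anti-human IgG plus serial IgG-based degrader, or 100 nM AF488 rabbit anti-DNP plus serial DNP-based degrader. After washing, cell-associated AF488 MFI read by flow cytometry; peak MFI marks optimal degrader concentration for ternary complex.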

[2] abbreviates: HepG2 cells, 100 nM AF488-labeled antibody, 37° C. for 6 hours, class symbols, read-out: Uptake Assay EC50.
[3] abbreviates: HepG2 cells, read-out: Uptake EC50.
The mark [4] stands for this setting: HepG2 cells, ternary complex formation, read-out: TCF EC50.

Molecules are shown by their SMILES. Read-outs that look alike come from different tables or passages of the source.

Consider `CC(C)C[C@@H]1NC(=O)[C@H](Cc2c[nH]cn2)NC(=O)[C@H](Cc2c[nH]c3ccccc23)NC(=O)[C@H](C)NC(=O)[C@@H]2CSSC[C@H](NC(=O)[C@H](Cc3c[nH]c4ccccc34)NC(=O)[C@H](C(C)C)NC(=O)[C@H](CC(C)C)NC(=O)[C@H](CCC(=O)O)NC(=O)CNC1=O)C(=O)N[C@@H]([C@@H](C)O)C(=O)N1CCC[C@@H]1C(=O)N1C[C@@H](NC(=O)CCOCCOCCOCCOCCNC(=O)CCCc3cn(CCCCCC(=O)NC(COCCC(=O)NCCOCCOCCOCCOC[C@H]4OC[C@H](Nc5cncc(C(F)(F)F)n5)[C@@H](O)[C@H]4O)COCCC(=O)NCCOCCOCCOCCOC[C@H]4OC[C@H](Nc5cncc(C(F)(F)F)n5)[C@@H](O)[C@H]4O)nn3)C[C@H]1C(=O)N[C@@H](CC(=O)O)C(=O)N2` [Compound 4], for which the Kd on ASGPR and at IgG was under 100 nM throughout. Besides, the EC50 (in the assay on HepG2 cells (setting [2]); with HepG2 cells (setting [3]); in assay [1]; in assay [1] (read-out: Ternary Complex EC50)) was under 100 nM each time.
Turning to `CC(=O)N[C@H]1[C@H](OCCOCCOCCOCCNC(=O)CCOCC(COCCC(=O)NCCOCCOCCOCCO[C@@H]2O[C@H](CO)[C@H](O)[C@H](O)[C@H]2NC(C)=O)NC(=O)CCCCCn2cc(CCCC(=O)NCCOCCOCCOCCOCCC(=O)N[C@H]3C[C@H]4C(=O)N[C@@H](CC(=O)O)C(=O)N[C@H]5CSSC[C@H](NC(=O)[C@H](Cc6c[nH]c7ccccc67)NC(=O)[C@H](C(C)C)NC(=O)[C@H](CC(C)C)NC(=O)[C@H](CCC(=O)O)NC(=O)CNC(=O)[C@H](CC(C)C)NC(=O)[C@H](Cc6c[nH]cn6)NC(=O)[C@H](Cc6c[nH]c7ccccc67)NC(=O)[C@H](C)NC5=O)C(=O)N[C@@H]([C@@H](C)O)C(=O)N5CCC[C@@H]5C(=O)N4C3)nn2)O[C@H](CO)[C@H](O)[C@@H]1O` [Compound 84], the Kd (commonly the free concentration of one partner at which half of the binding sites on the other are occupied at equilibrium, for simple one-to-one binding) was over 1000 nM on ASGPR and under 100 nM on IgG. Also, the EC50 (in the assay with HepG2 cells (setting [3]); in assay [1]) was over 1000 nM each time.
Consider `CC(C)C[C@@H]1NC(=O)[C@H](Cc2cnc[nH]2)NC(=O)[C@H](Cc2c[nH]c3ccccc23)NC(=O)[C@H](C)NC(=O)[C@@H]2CSSC[C@H](NC(=O)[C@H](Cc3c[nH]c4ccccc34)NC(=O)[C@H](C(C)C)NC(=O)[C@H](CC(C)C)NC(=O)[C@H](CCC(=O)O)NC(=O)CNC1=O)C(=O)N[C@@H]([C@@H](C)O)C(=O)N1CCC[C@@H]1C(=O)N1C[C@@H](NC(=O)CCCc3cn(C[C@H]4OC[C@H](Nc5cncc(C(F)(F)F)n5)[C@@H](O)[C@H]4O)nn3)C[C@H]1C(=O)N[C@@H](CC(=O)O)C(=O)N2` [Compound 51], for which the Kd on ASGPR was under 100 nM; at ASGPR (read-out: ASGPR KD, SPR), under 100 nM; at IgG, under 100 nM. Further, the EC50 (usually the concentration at which the effect is half-maximal) is under 100 nM in the assay with HepG2 cells (setting [2]); under 100 nM with HepG2 cells (setting [3]); under 100 nM in assay [1] (HepG2 cells, 100 nM AF488-labeled antibody, 1 hour at 4° C., class symbols, read-out: Ternary Complex EC50); under 100 nM in assay [1] (setting [4]).
For the compound `CC(C)C[C@@H]1NC(=O)[C@H](Cc2cnc[nH]2)NC(=O)[C@H](Cc2c[nH]c3ccccc23)NC(=O)[C@H](C)NC(=O)[C@@H]2CSSC[C@H](NC(=O)[C@H](Cc3c[nH]c4ccccc34)NC(=O)[C@H](C(C)C)NC(=O)[C@H](CC(C)C)NC(=O)[C@H](CCC(=O)O)NC(=O)CNC1=O)C(=O)N[C@@H]([C@@H](C)O)C(=O)N1CCC[C@@H]1C(=O)N1C[C@@H](NC(=O)CCN3CCN(CC(=O)NC[C@H]4OC[C@H](Nc5cncc(C(F)(F)F)n5)[C@@H](O)[C@H]4O)CC3)C[C@H]1C(=O)N[C@@H](CC(=O)O)C(=O)N2` [Compound 63], the Kd is 100 to 500 nM at ASGPR and under 100 nM on IgG. Moreover, the EC50 (in the assay on HepG2 cells (setting [3]); in assay [1] (setting [4])) was under 100 nM throughout.
In the case of `O=C(CCOCC(COCCC(=O)NCCOCCOCCOCCOC[C@H]1OC[C@H](Nc2nccc(C(F)(F)F)n2)[C@@H](O)[C@H]1O)NC(=O)COCCOCCOCCNc1ccc([N+](=O)[O-])cc1[N+](=O)[O-])NCCOCCOCCOCCOC[C@H]1OC[C@H](Nc2nccc(C(F)(F)F)n2)[C@@H](O)[C@H]1O` [Compound 32, 3,3′-((2-(2-(2-(2-(2-((2,4-dinitrophenyl)amino)ethoxy)ethoxy)ethoxy)acetamido)propane-1,3-diyl)bis(oxy))bis(N-(1-((2R,3R,4R,5S)-3,4-dihydroxy-5-((4-(trifluoromethyl)pyrimidin-2-yl)amino)tetrahydro-2H-pyran-2-yl)-2,5,8,11-tetraoxatridecan-13-yl)propanamide)], the Kd on ASGPR and at IgG was under 100 nM throughout. The EC50 with HepG2 cells (setting [3]) is under 100 nM; in the assay on HepG2 cells (Homo sapiens, HepG2, 6 h, read-out: Uptake Assay EC50 (nM)), under 100 nM; in assay [1] (setting [4]), under 100 nM; in assay [1] (Ternary Complex EC50 (nM), HepG2 cells, 100 nM AF488-labeled antibody, 1 hour at 4° C., class symbols) it was under 100 nM.

For the origin of these results see US12091402B2 (Avilar Therapeutics, Inc., priority 2021, dated 2024).
